# Like-named read-outs stand apart in the source and are kept apart here.
# Assays:
# MV4;11 cells = assay: Cell viability assay (CellTiter-Glo) in MV4;11 cells, alone or with gilteritinib; assay type: cell-based; conditions: Homo sapiens, MV4;11 cells, three days, CellTiter-Glo, read-out: MV4
# MOLM-13 cells = assay: Cell viability assay (CellTiter-Glo) in MOLM-13 cells, alone or with gilteritinib; assay type: cell-based; conditions: Homo sapiens, MOLM-13 cells, three days, CellTiter-Glo
# [1] = MV4-11, 72 h, compound alone (without gilteritinib), 11 IC50
# [2] = MV4-11, 72 h, with gilteritinib 10 nM, 11 IC50 gilteritinib
# [3] = MOLM-13, 72 h, compound alone (without gilteritinib), read-out: MOLM-13 IC50
# [4] = MOLM-13, 72 h, with gilteritinib 20 nM, read-out: MOLM-13 IC50 gilteritinib
Compound,IC50 (MV4;11 cells; [1]) [nM],IC50 (MV4;11 cells; [2]) [nM],IC50 (MOLM-13 cells; [3]) [nM],IC50 (MOLM-13 cells; [4]) [nM],"IC50 (MV4;11 cells; 72 h, compound alone (without gilteritinib), 11 IC50) [nM]","IC50 (MV4;11 cells; 72 h, with gilteritinib 10 nM, 11 IC50 gilteritinib) [nM]","IC50 (MOLM-13 cells; 72 h, compound alone (without gilteritinib), read-out: MOLM-13 IC50) [nM]","IC50 (MOLM-13 cells; 72 h, with gilteritinib 20 nM, read-out: MOLM-13 IC50 gilteritinib) [nM]"
"O=C1CCC(N2C(=O)c3ccc(NC[C@H]4C[C@H](n5cc(-c6ccc(N7CCNCC7)cn6)c(C6CC6)n5)C4)cc3C2=O)C(=O)N1 (stereo partly drawn) [GS-297, 5-(((trans-3-(3-Cyclopropyl-4-(5-(piperazin-1-yl)pyridin-2-yl)-1H-pyrazol-1-yl)cyclobutyl)methyl)amino)-2-(2,6-dioxopiperidin-3-yl)isoindoline-1,3-dione]",> 1000,> 1000,> 1000,> 1000,–,–,–,–
"CN1CCN(c2ccc(-c3cn([C@H]4C[C@H](CNc5ccc6c(c5)C(=O)N(C5CCC(=O)NC5=O)C6=O)C4)nc3C3CC3)nc2)CC1 (stereo partly drawn) [GS-298, 5-(((trans-3-(3-Cyclopropyl-4-(5-(4-methylpiperazin-1-yl)pyridin-2-yl)-1H-pyrazol-1-yl)cyclobutyl)methyl)amino)-2-(2,6-dioxopiperidin-3-yl)isoindoline-1,3-dione]",> 1000,> 1000,> 1000,> 1000,–,–,–,–
"O=C1CCC(N2C(=O)c3ccc(NC[C@H]4C[C@H](n5cc(-c6nccc7[nH]ncc67)c(C6CC6)n5)C4)cc3C2=O)C(=O)N1 (stereo partly drawn) [GS-299, 5-(((trans-3-(3-Cyclopropyl-4-(1H-pyrazolo[4,3-c]pyridin-4-yl)-1H-pyrazol-1-yl)cyclobutyl)methyl)amino)-2-(2,6-dioxopiperidin-3-yl)isoindoline-1,3-dione]",< 10,< 10,10 to 100,< 10,–,–,–,–
"CNc1ccc(-c2cn([C@H]3C[C@H](CNc4ccc5c(c4)C(=O)N(C4CCC(=O)NC4=O)C5=O)C3)nc2C2CC2)nc1 (stereo partly drawn) [GS-301, 5-(((trans-3-(3-Cyclopropyl-4-(5-(methylamino)pyridin-2-yl)-1H-pyrazol-1-yl)cyclobutyl)methyl)amino)-2-(2,6-dioxopiperidin-3-yl)isoindoline-1,3-dione]",> 1000,100 to 1000,> 1000,100 to 1000,–,–,–,–
"O=C1CCC(N2C(=O)c3ccc(NC[C@H]4C[C@H](n5cc(-c6ccc(NC7CCNCC7)cn6)c(C6CC6)n5)C4)cc3C2=O)C(=O)N1 (stereo partly drawn) [GS-302, 5-(((trans-3-(3-Cyclopropyl-4-(5-(piperidin-4-ylamino)pyridin-2-yl)-1H-pyrazol-1-yl)cyclobutyl)methyl)amino)-2-(2,6-dioxopiperidin-3-yl)isoindoline-1,3-dione]",> 1000,> 1000,> 1000,> 1000,–,–,–,–
"CN1CCC(Nc2ccc(-c3cn([C@H]4C[C@H](CNc5ccc6c(c5)C(=O)N(C5CCC(=O)NC5=O)C6=O)C4)nc3C3CC3)nc2)CC1 (stereo partly drawn) [GS-303, 5-(((trans-3-(3-Cyclopropyl-4-(5-((1-methylpiperidin-4-yl)amino)pyridin-2-yl)-1H-pyrazol-1-yl)cyclobutyl)methyl)amino)-2-(2,6-dioxopiperidin-3-yl)isoindoline-1,3-dione]",> 1000,> 1000,> 1000,> 1000,–,–,–,–
"O=C1CCC(N2C(=O)c3ccc(NC[C@H]4C[C@H](n5cc(-c6ncccc6NC6CCNCC6)c(C6CC6)n5)C4)cc3C2=O)C(=O)N1 (stereo partly drawn) [GS-304, 5-(((trans-3-(3-Cyclopropyl-4-(3-(piperidin-4-ylamino)pyridin-2-yl)-1H-pyrazol-1-yl)cyclobutyl)methyl)amino)-2-(2,6-dioxopiperidin-3-yl)isoindoline-1,3-dione]",> 1000,> 1000,> 1000,> 1000,–,–,–,–
"Cc1nc(-c2cn([C@H]3C[C@H](CNc4ccc5c(c4)C(=O)N(C4CCC(=O)NC4=O)C5=O)C3)nc2C2CC2)ccc1F (stereo partly drawn) [GS-305, 5-(((trans-3-(3-Cyclopropyl-4-(5-fluoro-6-methylpyridin-2-yl)-1H-pyrazol-1-yl)cyclobutyl)methyl)amino)-2-(2,6-dioxopiperidin-3-yl)isoindoline-1,3-dione]",10 to 100,< 10,10 to 100,< 10,–,–,–,–
"CNc1ccnc(-c2cn([C@H]3C[C@H](CNc4ccc5c(c4)C(=O)N(C4CCC(=O)NC4=O)C5=O)C3)nc2C2CC2)c1 (stereo partly drawn) [GS-306, 5-(((trans-3-(3-Cyclopropyl-4-(4-(methylamino)pyridin-2-yl)-1H-pyrazol-1-yl)cyclobutyl)methyl)amino)-2-(2,6-dioxopiperidin-3-yl)isoindoline-1,3-dione]",> 1000,> 1000,> 1000,> 1000,–,–,–,–
"O=C1CCC(N2C(=O)c3ccc(NC[C@H]4C[C@H](n5cc(-c6cc7[nH]cnc7cn6)c(C6CC6)n5)C4)cc3C2=O)C(=O)N1 (stereo partly drawn) [GS-307, 5-(((trans-3-(3-Cyclopropyl-4-(1H-imidazo[4,5-c]pyridin-6-yl)-1H-pyrazol-1-yl)cyclobutyl)methyl)amino)-2-(2,6-dioxopiperidin-3-yl)isoindoline-1,3-dione]",100 to 1000,10 to 100,100 to 1000,10 to 100,–,–,–,–
"O=C1CCC(N2C(=O)c3ccc(NC[C@H]4C[C@H](n5cc(-c6ccc7c(n6)CCCC7)c(C6CC6)n5)C4)cc3C2=O)C(=O)N1 (stereo partly drawn) [GS-308, 5-(((trans-3-(3-Cyclopropyl-4-(5,6,7,8-tetrahydroquinolin-2-yl)-1H-pyrazol-1-yl)cyclobutyl)methyl)amino)-2-(2,6-dioxopiperidin-3-yl)isoindoline-1,3-dione]",10 to 100,< 10,10 to 100,< 10,–,–,–,–
"O=C1CCC(N2C(=O)c3ccc(NC[C@H]4C[C@H](n5cc(-c6nccc7nccnc67)c(C6CC6)n5)C4)cc3C2=O)C(=O)N1 (stereo partly drawn) [GS-309, 5-(((trans-3-(3-Cyclopropyl-4-(pyrido[3,4-b]pyrazin-5-yl)-1H-pyrazol-1-yl)cyclobutyl)methyl)amino)-2-(2,6-dioxopiperidin-3-yl)isoindoline-1,3-dione]",< 10,< 10,< 10,< 10,–,–,–,–
"O=C1CCC(N2C(=O)c3ccc(NC[C@H]4C[C@H](n5cc(-c6nccc7cn[nH]c67)c(C6CC6)n5)C4)cc3C2=O)C(=O)N1 (stereo partly drawn) [GS-310, 5-(((trans-3-(3-Cyclopropyl-4-(1H-pyrazolo[3,4-c]pyridin-7-yl)-1H-pyrazol-1-yl)cyclobutyl)methyl)amino)-2-(2,6-dioxopiperidin-3-yl)isoindoline-1,3-dione]",10 to 100,10 to 100,100 to 1000,10 to 100,–,–,–,–
"O=C1CCC(N2C(=O)c3ccc(NCCC[C@H]4C[C@H](n5cc(-c6ncccc6Cl)cn5)C4)cc3C2=O)C(=O)N1 (stereo partly drawn) [GS-311, 5-((3-(trans-3-(4-(3-Chloropyridin-2-yl)-1H-pyrazol-1-yl)cyclobutyl)propyl)amino)-2-(2,6-dioxopiperidin-3-yl)isoindoline-1,3-dione]",10 to 100,< 10,> 1000,10 to 100,–,–,–,–
"O=C(CCn1cc(-c2cnc3ccccc3n2)c(C2CC2)n1)NCc1ccc2c(c1)C(=O)N(C1CCC(=O)NC1=O)C2=O (centres unmarked) [GS-312, 3-(3-Cyclopropyl-4-(quinoxalin-2-yl)-1H-pyrazol-1-yl)-N-((2-(2,6-dioxopiperidin-3-yl)-1,3-dioxoisoindolin-5-yl)methyl)propanamide]",–,–,–,–,> 1000,> 1000,> 1000,> 1000
"O=C1CCC(N2C(=O)c3ccc(CNCCCn4cc(-c5cnc6ccccc6n5)c(C5CC5)n4)cc3C2=O)C(=O)N1 (centres unmarked) [GS-313, 5-(((3-(3-Cyclopropyl-4-(quinoxalin-2-yl)-1H-pyrazol-1-yl)propyl)amino)methyl)-2-(2,6-dioxopiperidin-3-yl)isoindoline-1,3-dione]",> 1000,> 1000,> 1000,> 1000,–,–,–,–
"CN1CCN(c2ccc3nc(-c4cn([C@H]5C[C@H](CNc6ccc7c(c6)C(=O)N(C6CCC(=O)NC6=O)C7=O)C5)nc4C4CC4)cnc3c2)CC1 (stereo partly drawn) [GS-314, 5-(((trans-3-(3-Cyclopropyl-4-(6-(4-methylpiperazin-1-yl)quinoxalin-2-yl)-1H-pyrazol-1-yl)cyclobutyl)methyl)amino)-2-(2,6-dioxopiperidin-3-yl)isoindoline-1,3-dione]",10 to 100,< 10,10 to 100,< 10,–,–,–,–
"O=C1CCC(N2C(=O)c3ccc(NCCCCCCn4cc(-c5cnc6cccc(Br)c6n5)cn4)cc3C2=O)C(=O)N1 (centres unmarked) [GS-315, 5-((6-(4-(8-Bromoquinoxalin-2-yl)-1H-pyrazol-1-yl)hexyl)amino)-2-(2,6-dioxopiperidin-3-yl)isoindoline-1,3-dione]",10 to 100,< 10,100 to 1000,10 to 100,–,–,–,–
"O=C(CN1CCC(n2cc(-c3cnc4ccccc4n3)cn2)CC1)NCCCNc1ccc2c(c1)C(=O)N(C1CCC(=O)NC1=O)C2=O (centres unmarked) [GS-316, N-(3-((2-(2,6-Dioxopiperidin-3-yl)-1,3-dioxoisoindolin-5-yl)amino)propyl)-2-(4-(4-(quinoxalin-2-yl)-1H-pyrazol-1-yl)piperidin-1-yl)acetamide]",> 1000,> 1000,> 1000,100 to 1000,–,–,–,–
"O=C(CN1CCC(n2cc(-c3ccc4ccccc4n3)cn2)CC1)NCCCNc1ccc2c(c1)C(=O)N(C1CCC(=O)NC1=O)C2=O (centres unmarked) [GS-317, N-(3-((2-(2,6-Dioxopiperidin-3-yl)-1,3-dioxoisoindolin-5-yl)amino)propyl)-2-(4-(4-(quinolin-2-yl)-1H-pyrazol-1-yl)piperidin-1-yl)acetamide]",> 1000,> 1000,> 1000,100 to 1000,–,–,–,–

# — US20240050428A1 (Cullgen (Shanghai), Inc., priority 2020, published 2024)
